Measurements taken from EP0745599A2, “1-(3-Heterocyclylphenyl)-s-triazine-2,4,6-oxo or thiotrione herbicidal agents” (American Cyanamid Company, priority 1995, dated 1996).

What was measured:
Format in all cases: in vivo
Conditions in all cases: rated four to five weeks after treatment
[1] = test system: SETARIA VIRIDIS, (L) BEAU; assay: Preemergence herbicidal evaluation, SETVI (Foxtail, Green); design: key to SETVI: visual rating scale 0-9 vs control
Excerpt: (§1) Results of herbicide evaluation are expressed on a rating scale (0-9). The scale is based upon a visual observation of plant stand, vigor, malformation, size, chlorosis and overall plant appearance as compared with a control.
(§2) The preemergence herbicidal activity of the test compounds of the present invention is exemplified by the following tests in which the seeds of a variety of monocotyledonous and dicotyledonous plants are separately mixed with potting soil and planted on top of approximately one inch of soil in separate pint cups. After planting, the cups are sprayed with the selected aqueous acetone solution containing test compound in sufficient quantity to provide the equivalent of about 0.125 to 0.50 kg per hectare of test compound per cup. The treated cups are then placed on greenhouse benches, watered and cared for in accordance with conventional greenhouse procedures. From four to five weeks after treatment, the tests are terminated and each cup is examined and rated according to the rating system provided in Example 42.

[2] = test system: ABUTILON THEOPHRASTI, MEDIC.; assay: Postemergence herbicidal evaluation, ABUTH (Velvetleaf)
Protocol: (§3) In the tests, seedling plants are grown in jiffy flats for about two weeks. The test compounds are dispersed in 50/50 acetone/water mixtures containing 0.5% TWEEN®20, a polyoxyethylene sorbitan monolaurate surfactant of Atlas Chemical Industries, in sufficient quantities to provide the equivalent of about 0.125 kg to 0.500 kg per hectare of active compound when applied to the plants through a spray nozzle operating at 40 psi for a predetermined time. After spraying, the plants are placed on greenhouse benches and are cared for in the usual manner, commensurate with conventional greenhouse practices. From four to five weeks after treatment, the seedling plants are examined and rated according to the rating system set forth below. Where more than one test is involved for a given compound, the data are averaged.
as §1

ZEA MAYS L. = assay: Preemergence herbicidal evaluation, ZEAMX (Corn, Field); design: key to ZEAMX: visual rating scale 0-9 vs control
Excerpt: as §1, §2

[3] = test system: ECHINOCHLOA CRUS-GALLI, (L) BEAU; assay: Postemergence herbicidal evaluation, ECHCG (Barnyardgrass)
Protocol: as §3, §1

[4] = test system: TRITICUM AESTIVUM, CV. APOLLO; assay: Preemergence herbicidal evaluation, TRZAWO (Wheat, Winter, CV. APOLLO); design: key to TRZAWO: visual rating scale 0-9 vs control
Excerpt: as §1, §2

[5] = test system: ABUTILON THEOPHRASTI, MEDIC.; assay: Preemergence herbicidal evaluation, ABUTH (Velvetleaf); design: key to ABUTH: visual rating scale 0-9 vs control
Excerpt: as §1, §2

[6] = test system: TRITICUM AESTIVUM, CV. APOLLO; assay: Postemergence herbicidal evaluation, TRZAWO (Wheat, Winter, CV. APOLLO)
Protocol: as §3, §1

[7] = test system: ECHINOCHLOA CRUS-GALLI, (L) BEAU; assay: Preemergence herbicidal evaluation, ECHCG (Barnyardgrass); design: key to ECHCG: visual rating scale 0-9 vs control
Excerpt: as §1, §2

[8] = test system: SETARIA VIRIDIS, (L) BEAU; assay: Postemergence herbicidal evaluation, SETVI (Foxtail, Green)
Protocol: as §3, §1

CHENOPODIUM ALBUM, L. = assay: Preemergence herbicidal evaluation, CHEAL (Lambsquarters, Common); design: key to CHEAL: visual rating scale 0-9 vs control
Excerpt: as §1, §2

[9] = test system: ORYZA SATIVA, L. TEBONNET; assay: Preemergence herbicidal evaluation, ORYSAT (Rice, Tebonnet); design: key to ORYSAT: visual rating scale 0-9 vs control
Excerpt: as §1, §2

[10] = test system: GLYCINE MAX(L)MERR. CV. WILLIAMS; assay: Preemergence herbicidal evaluation, GLXMAW (Soybean, Williams); design: key to GLXMAW: visual rating scale 0-9 vs control
Excerpt: as §1, §2

[11] = test system: AMBROSIA ARTEMISIIFOLIA, L.; assay: Preemergence herbicidal evaluation, AMBEL (Ragweed, Common); design: key to AMBEL: visual rating scale 0-9 vs control
Excerpt: as §1, §2

GALIUM APARINE = assay: Preemergence herbicidal evaluation, GALAP (Galium); design: key to GALAP: visual rating scale 0-9 vs control
Excerpt: as §1, §2

IPOMOEA SPP. = assay: Preemergence herbicidal evaluation, IPOSS (Morningglory Spp.); design: key to IPOSS: visual rating scale 0-9 vs control
Excerpt: as §1, §2

CASSIA OBTUSIFOLIA, L. [12] = assay: Preemergence herbicidal evaluation, CASOB (Sicklepod); design: key to CASOB: visual rating scale 0-9 vs control
Excerpt: as §1, §2

CASSIA OBTUSIFOLIA, L. [13] = assay: Postemergence herbicidal evaluation, CASOB (Sicklepod)
Protocol: as §3, §1

CC(C)OC(=O)Cn1c(=O)n(C)c(=O)n(-c2cc(N=c3sc(=O)n4n3CCCC4)c(F)cc2Cl)c1=O [Compound 13, Isopropyl 3-{2-chloro-4-fluoro-5-[(tetra-hydro-3-oxo-1H,3H-[1,3,4]thiadiazolo[3,4-a]pyridazin-1-ylidene)amino]phenyl}tetra-hydro-5-methyl-2,4,6-trioxo-s-triazine-1(2H)-acetate]
5.0: IPOSS (IPOMOEA SPP.; Rate 0.250 kg/ha) | CASOB (CASSIA OBTUSIFOLIA, L. [12]; Rate 0.125 kg/ha)
3.0: AMBEL ([11]; Rate 0.250 kg/ha)
7.0: SETVI ([1]; Rate 0.250 kg/ha) | SETVI ([1]; Rate 0.500 kg/ha)
1.0: ZEAMX (ZEA MAYS L.; Rate 0.500 kg/ha) | TRZAWO ([4]; Rate 0.500 kg/ha) | Herbicide rating (0-9) SETVI ([8]; 0.125 kg/ha) | Herbicide rating (0-9) SETVI ([8]; 0.250 kg/ha) | Herbicide rating (0-9) SETVI ([8]; 0.500 kg/ha) | ORYSAT ([9]; Rate 0.250 kg/ha)
9.0: Herbicide rating (0-9) ABUTH ([2]; 0.125 kg/ha) | Herbicide rating (0-9) ABUTH ([2]; 0.250 kg/ha) | Herbicide rating (0-9) ABUTH ([2]; 0.500 kg/ha) | ABUTH ([5]; Rate 0.125 kg/ha) | ABUTH ([5]; Rate 0.250 kg/ha) | ABUTH ([5]; Rate 0.500 kg/ha) | CHEAL (CHENOPODIUM ALBUM, L.; Rate 0.125 kg/ha) | CHEAL (CHENOPODIUM ALBUM, L.; Rate 0.250 kg/ha) | CHEAL (CHENOPODIUM ALBUM, L.; Rate 0.500 kg/ha) | GALAP (GALIUM APARINE; Rate 0.125 kg/ha) | GALAP (GALIUM APARINE; Rate 0.500 kg/ha) | CASOB (CASSIA OBTUSIFOLIA, L. [12]; Rate 0.250 kg/ha) | CASOB (CASSIA OBTUSIFOLIA, L. [12]; Rate 0.500 kg/ha)
2.0: ORYSAT ([9]; Rate 0.500 kg/ha) | IPOSS (IPOMOEA SPP.; Rate 0.125 kg/ha)
8.0: AMBEL ([11]; Rate 0.500 kg/ha) | GALAP (GALIUM APARINE; Rate 0.250 kg/ha)
0.0: SETVI ([1]; Rate 0.125 kg/ha) | ZEAMX (ZEA MAYS L.; Rate 0.125 kg/ha) | ZEAMX (ZEA MAYS L.; Rate 0.250 kg/ha) | Herbicide rating (0-9) ECHCG ([3]; 0.125 kg/ha) | Herbicide rating (0-9) ECHCG ([3]; 0.250 kg/ha) | Herbicide rating (0-9) ECHCG ([3]; 0.500 kg/ha) | TRZAWO ([4]; Rate 0.125 kg/ha) | TRZAWO ([4]; Rate 0.250 kg/ha) | ECHCG ([7]; Rate 0.125 kg/ha) | ECHCG ([7]; Rate 0.250 kg/ha) | ECHCG ([7]; Rate 0.500 kg/ha) | ORYSAT ([9]; Rate 0.125 kg/ha) | GLXMAW ([10]; Rate 0.125 kg/ha) | GLXMAW ([10]; Rate 0.250 kg/ha) | GLXMAW ([10]; Rate 0.500 kg/ha) | AMBEL ([11]; Rate 0.125 kg/ha)
6.0: IPOSS (IPOMOEA SPP.; Rate 0.500 kg/ha)
3.5: Herbicide rating (0-9) TRZAWO ([6]; 0.125 kg/ha) | Herbicide rating (0-9) TRZAWO ([6]; 0.250 kg/ha) | Herbicide rating (0-9) TRZAWO ([6]; 0.500 kg/ha)

CCOC(=O)Cn1c(=O)[nH]c(=O)n(-c2ccc(F)c(N3C(=O)C4=C(CCCC4)C3=O)c2)c1=O [Compound 9, Ethyl 3-[3-(1-cyclohexene-1,2-dicarbox-imido)-4-fluorophenyl]tetrahydro-2,4,6-trioxo-s-triazine-1(2H)-acetate]
0.0: Herbicide rating (0-9) SETVI ([1]; 0.125 kg/ha) | Herbicide rating (0-9) SETVI ([1]; 0.250 kg/ha) | Herbicide rating (0-9) SETVI ([1]; 0.500 kg/ha) | Herbicide rating (0-9) ZEAMX (ZEA MAYS L.; 0.125 kg/ha) | Herbicide rating (0-9) ZEAMX (ZEA MAYS L.; 0.250 kg/ha) | Herbicide rating (0-9) ZEAMX (ZEA MAYS L.; 0.500 kg/ha) | Herbicide rating (0-9) ECHCG ([3]; 0.125 kg/ha) | Herbicide rating (0-9) ECHCG ([3]; 0.250 kg/ha) | Herbicide rating (0-9) ECHCG ([3]; 0.500 kg/ha) | Herbicide rating (0-9) TRZAWO ([4]; 0.125 kg/ha) | Herbicide rating (0-9) TRZAWO ([4]; 0.250 kg/ha) | Herbicide rating (0-9) TRZAWO ([4]; 0.500 kg/ha) | Herbicide rating (0-9) ABUTH ([5]; 0.125 kg/ha) | Herbicide rating (0-9) ABUTH ([5]; 0.250 kg/ha) | Herbicide rating (0-9) ABUTH ([5]; 0.500 kg/ha) | Herbicide rating (0-9) ECHCG ([7]; 0.125 kg/ha) | Herbicide rating (0-9) ECHCG ([7]; 0.250 kg/ha) | Herbicide rating (0-9) ECHCG ([7]; 0.500 kg/ha) | Herbicide rating (0-9) SETVI ([8]; 0.125 kg/ha) | Herbicide rating (0-9) SETVI ([8]; 0.250 kg/ha) | Herbicide rating (0-9) SETVI ([8]; 0.500 kg/ha) | Herbicide rating (0-9) CHEAL (CHENOPODIUM ALBUM, L.; 0.125 kg/ha) | Herbicide rating (0-9) CHEAL (CHENOPODIUM ALBUM, L.; 0.250 kg/ha) | Herbicide rating (0-9) CHEAL (CHENOPODIUM ALBUM, L.; 0.500 kg/ha) | Herbicide rating (0-9) CASOB (CASSIA OBTUSIFOLIA, L. [13]; 0.125 kg/ha) | Herbicide rating (0-9) CASOB (CASSIA OBTUSIFOLIA, L. [13]; 0.250 kg/ha) | Herbicide rating (0-9) CASOB (CASSIA OBTUSIFOLIA, L. [13]; 0.500 kg/ha) | Herbicide rating (0-9) ORYSAT ([9]; 0.125 kg/ha) | Herbicide rating (0-9) ORYSAT ([9]; 0.250 kg/ha) | Herbicide rating (0-9) ORYSAT ([9]; 0.500 kg/ha) | Herbicide rating (0-9) GLXMAW ([10]; 0.125 kg/ha) | Herbicide rating (0-9) GLXMAW ([10]; 0.250 kg/ha) | Herbicide rating (0-9) GLXMAW ([10]; 0.500 kg/ha) | Herbicide rating (0-9) AMBEL ([11]; 0.125 kg/ha) | Herbicide rating (0-9) AMBEL ([11]; 0.250 kg/ha) | Herbicide rating (0-9) AMBEL ([11]; 0.500 kg/ha) | Herbicide rating (0-9) GALAP (GALIUM APARINE; 0.125 kg/ha) | Herbicide rating (0-9) GALAP (GALIUM APARINE; 0.250 kg/ha) | Herbicide rating (0-9) GALAP (GALIUM APARINE; 0.500 kg/ha) | Herbicide rating (0-9) IPOSS (IPOMOEA SPP.; 0.125 kg/ha) | Herbicide rating (0-9) IPOSS (IPOMOEA SPP.; 0.250 kg/ha) | Herbicide rating (0-9) IPOSS (IPOMOEA SPP.; 0.500 kg/ha) | Herbicide rating (0-9) CASOB (CASSIA OBTUSIFOLIA, L. [12]; 0.125 kg/ha) | Herbicide rating (0-9) CASOB (CASSIA OBTUSIFOLIA, L. [12]; 0.250 kg/ha) | Herbicide rating (0-9) CASOB (CASSIA OBTUSIFOLIA, L. [12]; 0.500 kg/ha)
